In test [1] the test system is A375 xenografts. The test is described as follows: Antitumor activity in A375 xenografts, monotherapy. It counts as in vivo, mice. On the procedure: (§1) For measurement of antitumor activity in A375 xenografts, xenografts were initiated with A375 cells maintained by serial subcutaneous transplantation in female athymic nude mice. Each test mouse received an A375 tumor fragment (1 mm^3) implanted subcutaneously in the right flank. Once tumors reached target size (80-120 mm^3), animals were randomized into treatment and control groups, and drug treatment was initiated.
Oral temozolomide was administered as a positive reference compound at 75 or 175 mg/kg once daily (QD) for a total of five treatments (QD×5).

Test [2] concerns A375 cells. Description: Proliferation assay (Alamar Blue, 96 h) in parental A375 cells. It counts as cell-based. To be noted: Homo sapiens, A-375, Parental A375. (The colour change of resazurin is a common sign of viable cells or microbes.)
Description: (§6) Proliferation assays were used to track changes in sensitivity to the escalated agent(s) at appropriate time intervals (e.g. each month, although the timing is dependent on adequate cell numbers being available). For proliferation assays, cells were seeded in 96-well plates at 3000 cells per well in drug-free DMEM medium containing 10% FBS and allowed to adhere overnight prior to addition of compound or vehicle control. The final DMSO concentration was constant at 0.1%. Test compounds were incubated with the cells for 96 hours at 37° C. and 5% CO2 in a humidified atmosphere. Alamar Blue 10% (v/v) was then added and incubated for 4 hours and fluorescent product was detected using a BMG FLUOstar plate reader. The average media only background value was deducted and the data analyzed using a 4-parameter logistic equation in GraphPad Prism.
(§7) For assessment of drug sensitivity in cell-line models of acquired resistance, drug sensitivity of dose-escalated A375 cells and isogenic RKO cells was assessed in 96-hour proliferation assays. […] For the A375 assays Alamar blue (ThermoFisher) 10% (v/v) was added and incubated for 4 h, and fluorescent product was then detected using a BMG FLUOstar. The average media only background value was deducted and the data analyzed using a 4-parameter logistic equation in GraphPad Prism.
Test [3] concerns dose-escalated A375 cells. The test is described as follows: Proliferation assay (Alamar Blue, 96 h) in dose-escalated A375 cell lines. It counts as cell-based, human. To be noted: for Fold Change of IC50: BRAFi- + MEKi-resistant versus parental A375; for pIC50: Homo sapiens.
From the text: (§8) Cancer cell lines were maintained in cell culture under standard media and serum conditions. For dose escalation studies, A375 cells were split, grown to about 40-60% confluence, and then treated with the initial dose of the specified drug.
(§9) Cells were then allowed to grow until 70-90% confluence and split. Split ratios were kept as “normal” as possible and reasonably consistent between treatments (e.g. a minimum of 50% of the normal split ratio of the parentals). Medium was refreshed every 3-4 days. When cells again reached about 40-60% confluence, the dose was escalated. In the event that the 40-60% window was missed, the cells were split again and dosed once they reached 40-60% confluence. Again, medium was refreshed every 3-4 days.
as §6, §7
(§10) Cells were allowed to grow until ˜70-90% confluence and split; medium was refreshed every 3-4 days. […] This process was repeated as required.
In test [4] the test system is RKO Parental. The test is described as follows: Single agent proliferation assay (CellTiter-Glo, 96 h). In kind it is cell-based. On the procedure:
(§2) For assessment of drug sensitivity in cell-line models of acquired resistance, drug sensitivity of dose-escalated A375 cells and isogenic RKO cells was assessed in 96-hour proliferation assays. […] For the A375 assays Alamar blue (ThermoFisher) 10% (v/v) was added and incubated for 4 h, and fluorescent product was then detected using a BMG FLUOstar.
(§3) Compounds were prepared from DMSO stocks to give the desired final concentrations. The final DMSO concentration was constant at 0.1%. […] CellTiter-Glo® reagent (Promega, Madison, Wis.) was added according to manufacturer's instructions and luminescence detected using the BMG FLUOstar plate reader (BMG Labtech, Ortenberg, Germany).
In general terms: In ATP-based viability assays light output follows the ATP content of the culture.

For test [5], the system named is RKO MEK1 (Q56P/+) Clone 1. Described as above. In kind it is cell-based. To be noted: RKO MEK1 Q56P/+ Cl.1. On the procedure: as §2
(§4) RKO MEK1 Q56P Isogenic cells were produced by Horizon Discovery (Cambridge, UK; #HD 106-019) using a recombinant AAV-mediated gene targeting strategy. Briefly, rAAV virus was generated following transfection of the appropriate targeting vector and helper vectors in HEK293T cells, purified using an AAV purification kit (Virapur, San Diego, USA) and titrated using qPCR. Parental homozygous RKO cells (homozygous wild type for MEK1) were then infected with rAAV virus and clones that had integrated the selection cassette were identified by G418 selection and expanded. Correctly targeted clones that were heterozygous for knock-in of the MEK1 Q56P point mutation into a single allele were identified by PCR and sequencing.
as §3

The subject of test [6] is RKO MEK1 (Q56P/+) Clone 2. Described as above. It counts as cell-based. To be noted: RKO MEK1 Q56P/+ Cl.2. The method, then: as §2, §4, §3
The test system of test [7] is SW48 cell lines heterozygous for knock-in of mutant KRAS. The test is described as follows: Proliferation assay in isogenic SW48 lines with knock-in of mutant KRAS (Alamar blue, 96 h). It counts as cell-based. To be noted: versus control SW48. On the procedure:
Isogenic SW48 cell lines heterozygous for knock-in of mutant KRAS (De Roock et al 2010, JAMA, 304, 1812-1820) were obtained from Horizon Discovery (Catalogue numbers; HD 103-002, HD 103-006 HD 103-007, HD 103-009, HD 103-010, HD 103-011, HD 103-013). […] Viability was then assessed using Alamar blue.

In test [8] the test system is A375 cells. The test is described as follows: Dose escalation study (acquisition of resistance). In kind it is cell-based, human. Particulars: progressively increasing concentrations.
From the text: as §8, §9, §10
The subject of test [9] is A375 xenografts. The test is described as follows: A375 xenografts, BVD-523 in combination with dabrafenib. It counts as in vivo, mice. Particulars: 100 mg/kg QD.
From the text: as §1
(§5) Combination dosing was stopped on Day 20 to monitor for tumor regrowth. Animals were monitored individually and euthanized when each tumor reached an endpoint volume of 2000 mm^3, or the final day (Day 45), whichever came first, and median time to endpoint (TTE) calculated. The combination was also evaluated in an upstaged A375 model where larger tumors in the range 228-1008 mm^3 were evaluated. Here, mice were randomized into 1 group (Group 1) of 14 and 4 groups (Groups 2-5) of 20. […] Tumors were measured twice weekly. Combination dosing was stopped on Day 42 to monitor for tumor regrowth through study end (Day 60). Treatment outcome was determined from % TGD, defined as the percent increase in median TTE for treated versus control mice, with differences between groups analyzed via log rank survival analysis. […] Mice were also monitored for CR and PR responses. Animals with a CR at the end of the study were additionally classified as TFS.

Test [10] relates to upstaged A375 xenografts. The test is described as follows: Upstaged A375 xenograft model, BVD-523 in combination with dabrafenib. It counts as in vivo, mice. Particulars: 50 mg/kg BID; 11 evaluable mice. The method, then:
as §5

Test [11] relates to patient-derived xenograft (AT052C). Description: Patient-derived xenograft from vemurafenib-refractory BRAFV600E melanoma. It counts as in vivo, mice. For orientation: In xenograft studies the graft and the host belong to different species.
From the text: Tumor fragments were harvested from host animals and implanted into immune-deficient mice.
Test [12] concerns BRAF^V600-mutant melanoma. To be noted: cited from earlier work.
Where [13] appears, read: A-375, BRAFi- + MEKi-resistant (dabrafenib and trametinib combination-resistant) A375 population, read-out: IC50.
[14] abbreviates: A-375, Month 1, Dab/Tram-escalated line, read-out: Relative IC50.
Where [15] appears, read: A-375, Month 1, Tram/523-escalated line, read-out: Relative IC50.
[16] abbreviates: A-375, Month 2, Dab/Tram-escalated line, read-out: Relative IC50.
Setting [17] is: A-375, Month 2, Tram/523-escalated line, read-out: Relative IC50.
Setting [18] is: A-375, Month 3, Dab/Tram-escalated line, read-out: Relative IC50.
The mark [19] stands for this setting: A-375, Month 3, Tram/523-escalated line, read-out: Relative IC50.

pIC50: −log10 of the molar value. Read-outs that look alike come from different tables or passages of the source.

The text below walks through data of patent US20210038587A1, “METHODS AND COMPOSITIONS FOR TREATING NON-ERK MAPK PATHWAY INHIBITOR-RESISTANT CANCERS” (BIOMED VALLEY DISCOVERIES, INC., priority 2013, published 2021).

By pIC50 is commonly meant the IC50 on a negative log10 scale, so that one unit is a factor of ten. Broadly, the TGI is the reduction of tumour growth relative to the control group.

Consider `Cn1nnc2c(C(N)=O)ncn2c1=O` [temozolomide], for which the figures for the “tumor growth inhibition (TGI)” value in [1] (75 mg/kg QD×5) and in test [1] (175 mg/kg QD×5) were 34% and 78%, respectively.

Turning to `CC(=O)O[C@H]1C(=O)[C@@]2(C)[C@H]([C@H](OC(=O)c3ccccc3)[C@]3(O)C[C@H](OC(=O)[C@H](O)[C@@H](NC(=O)c4ccccc4)c4ccccc4)C(C)=C1C3(C)C)[C@]1(OC(C)=O)CO[C@@H]1C[C@@H]2O` [Paclitaxel], the pIC50 was 8.72 in [2]; 8.46 in test [3] (setting [13]); 8.46 in test [3] (setting [14]); 8.47 in test [3] (setting [15]); 8.33 in [3] (setting [16]); 8.05 in [3] (setting [17]). In addition, the pIC50 in test [3] (setting [18]) is 8.33; in test [3] (setting [19]) it was 8.05; in [4], 8.70; in [5] it was 8.70; in test [6] it was 8.70. The “Fold Change of IC50” value in test [3] is on record as “+1.8 fold”. The “sensitivity after knock-in of KRAS mutant alleles” value in [7] is recorded as “unaltered”.

In the case of `CC(C)(C)c1nc(-c2cccc(NS(=O)(=O)c3c(F)cccc3F)c2F)c(-c2ccnc(N)n2)s1` [Dabrafenib], the pIC50 was 7.75 in [3] (A-375, BRAFi- + MEKi-resistant (dabrafenib and trametinib combination-resistant) A375 population); 8.10 in test [3] (A-375, read-out: Relative IC50, Month 1, BVD-523-escalated line); 7.17 in [3] (A-375, read-out: Relative IC50, Month 1, Dab/523-escalated line); 7.24 in [3] (A-375, read-out: Relative IC50, Month 1, Dab/Tram-escalated line); 7.54 in test [3] (A-375, read-out: Relative IC50, Month 1, Tram-escalated line); 7.96 in test [3] (A-375, read-out: Relative IC50, Month 1, Tram/523-escalated line). In addition, the pIC50 in test [3] (A-375, read-out: Relative IC50, Month 2, BVD-523-escalated line) is 6.16; in [3] (A-375, read-out: Relative IC50, Month 2, Dab-escalated line), 7.94; in test [3] (A-375, read-out: Relative IC50, Month 2, Dab/523-escalated line), 6.66; in test [3] (A-375, read-out: Relative IC50, Month 2, Dab/Tram-escalated line) it was 6.59; in test [3] (A-375, read-out: Relative IC50, Month 2, Tram/523-escalated line), 7.17; in [3] (A-375, read-out: Relative IC50, Month 3, BVD-523-escalated line), 7.74. Moreover, the pIC50 in [3] (A-375, read-out: Relative IC50, Month 3, Dab-escalated line) was 8.60; in test [3] (A-375, read-out: Relative IC50, Month 3, Dab/523-escalated line), 6.47; in test [3] (A-375, read-out: Relative IC50, Month 3, Dab/Tram-escalated line), 7.75; in test [3] (A-375, read-out: Relative IC50, Month 3, Tram/523-escalated line) it was 7.14. Also, the “emergence of drug-resistant cell lines” value in [8] is listed as “readily obtained”. Besides, in [9], the PR worked out at 1. Moreover, the CRs in [10] worked out at 5. Besides, in test [10], the PRs stood at 5. Further, the TFS in test [10] was found to be 3. Moreover, the TGI in test [11] (50 mg/kg BID) stood at 22%. Further, the “activity in patient-derived line ST052C” value in [11] (dabrafenib 50 mg/kg BID, BVD-523 100 mg/kg BID) is “acquired cross-resistance”. Also, the overall survival in test [12] (Long et al. 2015, BRAF^V600E/K) was 18.7 months. The overall response in test [12] (Long et al. 2015) is recorded as 53%. The “progression-free survival (PFS)” value in test [12] (Long et al. 2015) is 8.8 months. In test [12] (phase III, single agent versus dacarbazine), the response rate result was “approximately 50%”.

In the case of `CC(=O)Nc1cccc(-n2c(=O)n(C3CC3)c(=O)c3c(Nc4ccc(I)cc4F)n(C)c(=O)c(C)c32)c1` [Trametinib], the pIC50 in test [2] was 9.70; in test [3] (setting [13]), 8.57; in [3] (setting [14]), 8.41; in test [3] (setting [15]) it was 8.60; in test [3] (setting [16]), 7.90; in test [3] (setting [17]), 8.34. For the same compound, the pIC50 in [3] (setting [18]) was 8.57; in test [3] (setting [19]), 7.95; in [4], 8.22; in [5] it was 7.03; in [6], 7.10. For the same compound, the “Fold Change of IC50” value is “+13.5 fold” in test [3] and 13.5 fold in test [3] (listed as trametinib).
